As usually defined, the EC50 is the concentration that produces a half-maximal response.

We go through 20 compounds from patent publication US12122761B2, “2-azaspiro[3.4]octane derivatives as M4 agonists” (NOVARTIS AG, priority 2019, dated 2024).

Test [1] has as its target T1, human cloned CHRM4 receptor (M4_CHO cells) (Homo sapiens, UniProt P08173).
T1 construct: expressed in transfected cells; host or cells: CHO-K1
T1 sequence (P08173 1-479): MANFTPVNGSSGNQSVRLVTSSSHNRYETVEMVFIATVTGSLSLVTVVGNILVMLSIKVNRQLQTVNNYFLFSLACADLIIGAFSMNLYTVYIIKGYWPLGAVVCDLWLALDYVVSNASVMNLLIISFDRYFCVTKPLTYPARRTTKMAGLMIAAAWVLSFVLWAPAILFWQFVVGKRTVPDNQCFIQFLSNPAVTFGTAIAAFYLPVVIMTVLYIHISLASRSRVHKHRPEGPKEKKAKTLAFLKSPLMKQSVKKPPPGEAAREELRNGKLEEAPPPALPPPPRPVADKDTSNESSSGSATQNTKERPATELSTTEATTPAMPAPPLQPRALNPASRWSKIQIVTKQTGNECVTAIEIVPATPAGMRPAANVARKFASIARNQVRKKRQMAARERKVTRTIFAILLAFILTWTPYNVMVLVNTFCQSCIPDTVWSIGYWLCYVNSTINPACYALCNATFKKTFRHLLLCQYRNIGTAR
As to the kind of experiment: CHRM4 Ca++ Flux Assay (agonist mode, FDSS 7000EX). The class given is cell-based. Conditions: for M4 FDSS PA / Emax: Percent Activity; for EC50: geometric mean if tested more than once, read-out: M4 FDSS EC50; for Emax: read-out: M4 FDSS PA. The method in brief: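 Agonist-mode response was expressed as percent of the Carbachol EC100 and fitted with four-parameter nonlinear regression over an 11-point triplicate dose series. Intracellular Ca++ was tracked for 3 min by fluorescent dye in CHO-K1 cells stably expressing human CHRM4. Cells were preincubated 60 min with 20 μM ATP in buffer containing 2.5 mM probenecid.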

The target of test [2] is T2, human cloned CHRM3 receptor (M3_CHO cells) (Homo sapiens, UniProt P20309).
T2 construct: expressed in transfected cells; host or cells: CHO-K1
Briefly: CHRM3 Ca++ Flux Assay (agonist mode, FDSS 7000EX). The class given is cell-based. Conditions: for M3 FDSS PA / Emax: Percent Activity measured to EC100 of Carbachol; for EC50: agonist mode, geometric mean if tested more than once, read-out: M3 FDSS EC50; for Emax: read-out: M3 FDSS PA. Summed up: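 CHO-K1 cells stably expressing human M3 or M5 receptor were dye-loaded for at least 1 h in HBSS with 20 mM HEPES and 2.5 mM probenecid, then given 11-point compound doses in triplicate.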

Each structure is given as a SMILES string. Some results are limits rather than exact numbers.

T2 sequence (P20309 whole entry): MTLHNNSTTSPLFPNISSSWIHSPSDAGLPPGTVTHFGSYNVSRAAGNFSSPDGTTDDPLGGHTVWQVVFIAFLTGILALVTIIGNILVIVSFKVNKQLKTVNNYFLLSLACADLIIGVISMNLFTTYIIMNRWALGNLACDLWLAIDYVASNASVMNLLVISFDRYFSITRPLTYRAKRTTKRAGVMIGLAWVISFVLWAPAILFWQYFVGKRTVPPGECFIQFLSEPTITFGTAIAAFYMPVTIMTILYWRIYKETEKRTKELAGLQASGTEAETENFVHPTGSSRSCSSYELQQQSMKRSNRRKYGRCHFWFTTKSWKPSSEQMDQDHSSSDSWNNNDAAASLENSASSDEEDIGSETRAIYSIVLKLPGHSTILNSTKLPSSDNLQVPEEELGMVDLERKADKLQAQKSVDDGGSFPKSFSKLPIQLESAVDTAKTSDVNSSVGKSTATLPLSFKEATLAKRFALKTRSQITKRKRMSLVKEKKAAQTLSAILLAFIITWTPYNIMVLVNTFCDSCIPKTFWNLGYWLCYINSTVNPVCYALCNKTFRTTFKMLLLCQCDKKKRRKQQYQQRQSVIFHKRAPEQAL

Turning to `O=C(N1CC2(CC[C@@H](N3CCC(c4ccccc4OC4CC5(COC5)C4)CC3)C2)C1)C1(F)CC1` (single isomer, unassigned) [Example 11C, (R)-(6-(4-(2-((2-oxaspiro[3.3]heptan-6-yl)oxy)phenyl)piperidin-1-yl)-2-azaspiro[3.4]octan-2-yl)(1-fluorocyclopropyl)methanone or (S)-(6-(4-(2-((2-oxaspiro[3.3]heptan-6-yl)oxy)phenyl)piperidin-1-yl)-2-azaspiro[3.4]octan-2-yl)(1-fluorocyclopropyl)methanone], in test [1], the “M4 FDSS PA” value amounted to 47% and the EC50 turned out to be 2 nM. Besides, in test [2], the “M3 FDSS PA” value was −1% and the EC50 was over 25000 nM.
`O=C(N1CC2(CC[C@@H](N3CCC(c4ccccc4OC4CC5(COC5)C4)CC3)C2)C1)C1(F)CC1` (single isomer, unassigned) [Example 11D, (R)-(6-(4-(2-((2-oxaspiro[3.3]heptan-6-yl)oxy)phenyl)piperidin-1-yl)-2-azaspiro[3.4]octan-2-yl)(1-fluorocyclopropyl)methanone or (S)-(6-(4-(2-((2-oxaspiro[3.3]heptan-6-yl)oxy)phenyl)piperidin-1-yl)-2-azaspiro[3.4]octan-2-yl)(1-fluorocyclopropyl)methanone]: in test [1], the “M4 FDSS PA” value was 38% and the concentration for a half-maximal effect (EC50) came out at 97 nM. In test [2], the “M3 FDSS PA” value is on record as 0% and the concentration for a half-maximal effect (EC50) is over 25000 nM.
For `Fc1ccc(OC2CC3(COC3)C2)c(C2CCN([C@@H]3CCC4(C3)CN(c3nnco3)C4)CC2)c1` [Example 1B, (R)-2-(6-(4-(2-((2-oxaspiro[3.3]heptan-6-yl)oxy)-5-fluorophenyl)piperidin-1-yl)-2-azaspiro[3.4]octan-2-yl)-1,3,4-oxadiazole], in test [1], the Emax was determined as 69% and the EC50 worked out at 1 nM. For the same compound, in test [2], the Emax stood at 0% and the EC50 is over 25000 nM.
The like results for `c1ccc(C2CCN([C@@H]3CCC4(C3)CN(c3nnco3)C4)CC2)c(OC[C@H]2COCCO2)c1` [Example 1C, 2-((R)-6-(4-(2-(((R)-1,4-dioxan-2-yl)methoxy)phenyl)piperidin-1-yl)-2-azaspiro[3.4]octan-2-yl)-1,3,4-oxadiazole] were, in that order, 75%, under 0.4 nM, 0% and over 25000 nM.
For `Cc1coc(N2CC3(CC[C@@H](N4CCC(c5ccc(F)cc5OCC(C)(C)O)CC4)C3)C2)n1` [Example 3N, (R)-1-(5-fluoro-2-(1-(2-(4-methyloxazol-2-yl)-2-azaspiro[3.4]octan-6-yl)piperidin-4-yl)phenoxy)-2-methylpropan-2-ol], in test [1], the Emax was found to be 0% and the 50% effective concentration (EC50) is over 25000 nM. In test [2], the Emax was determined as 0% and the concentration for a half-maximal effect (EC50) was over 25000 nM.
As for `Cc1coc(N2CC3(CC[C@@H](N4CCC(c5ccccc5OCC(C)(C)O)CC4)C3)C2)n1` [Example 3O, (R)-2-methyl-1-(2-(1-(2-(4-methyloxazol-2-yl)-2-azaspiro[3.4]octan-6-yl)piperidin-4-yl)phenoxy)propan-2-ol], in test [1], the Emax came out at 1% and the EC50 was over 25000 nM. Moreover, in test [2], the Emax is 0% and the concentration giving a half-maximal response (EC50) was over 25000 nM.
With `COc1ccccc1C1CCN([C@@H]2CCC3(C2)CN(c2ncon2)C3)CC1` [Example 4A, (R)-3-(6-(4-(2-methoxyphenyl)piperidin-1-yl)-2-azaspiro[3.4]octan-2-yl)-1,2,4-oxadiazole], in test [1], the Emax amounted to 77% and the EC50 is under 0.4 nM. In test [2], the Emax is 0% and the half-maximal effective concentration (EC50) was over 25000 nM.
The like results for `COc1ccccc1C1CCN([C@@H]2CCC3(C2)CN(c2cncnc2)C3)CC1` [Example 5A, (R)-6-(4-(2-methoxyphenyl)piperidin-1-yl)-2-(pyrimidin-5-yl)-2-azaspiro[3.4]octane] were, in that order, 64%, 2 nM, 0% and over 25000 nM.
The like results for `CC(C)(O)COc1ccccc1C1CCN([C@@H]2CCC3(C2)CN(c2cncnc2)C3)CC1` [Example 5B, (R)-2-methyl-1-(2-(1-(2-(pyrimidin-5-yl)-2-azaspiro[3.4]octan-6-yl)piperidin-4-yl)phenoxy)propan-2-ol] were, in that order, 53%, 4 nM, 0% and over 25000 nM.
For `Cc1ncncc1N1CC2(CC[C@@H](N3CCC(c4ccccc4OCC(C)(C)O)CC3)C2)C1` [Example 5C, (R)-2-methyl-1-(2-(1-(2-(4-methylpyrimidin-5-yl)-2-azaspiro[3.4]octan-6-yl)piperidin-4-yl)phenoxy)propan-2-ol], in test [1], the Emax was 6% and the 50% effective concentration (EC50) is over 25000 nM. Besides, in test [2], the Emax turned out to be 0% and the EC50 is over 25000 nM.
Take `COc1ccccc1C1CCN([C@@H]2CCC3(C2)CN(c2ccc(C)nc2)C3)CC1` [Example 5D, (R)-6-(4-(2-methoxyphenyl)piperidin-1-yl)-2-(6-methylpyridin-3-yl)-2-azaspiro[3.4]octane]: the Emax in test [1] was 36%; in test [2] it was 0%. Also, the EC50 was 156 nM in test [1] and over 25000 nM in test [2].
Consider `COc1ccccc1C1CCN([C@@H]2CCC3(C2)CN(c2cnc(C)nc2)C3)CC1` [Example 5E, (R)-6-(4-(2-methoxyphenyl)piperidin-1-yl)-2-(2-methylpyrimidin-5-yl)-2-azaspiro[3.4]octane], for which the values for the Emax in test [1] and in test [2] were 2% and 0%, respectively. Moreover, the concentration giving a half-maximal response (EC50) in test [1] and in test [2] was over 25000 nM in each case.
For the compound `COc1ccccc1C1CCN([C@@H]2CCC3(C2)CN(c2cncc(F)c2)C3)CC1` [Example 5F, (R)-2-(5-fluoropyridin-3-yl)-6-(4-(2-methoxyphenyl)piperidin-1-yl)-2-azaspiro[3.4]octane], in test [1], the Emax came to 59% and the half-maximal effective concentration (EC50) is 6 nM. For the same compound, in test [2], the Emax was 0% and the EC50 is over 25000 nM.
The like results for `COc1ccccc1C1CCN([C@@H]2CCC3(C2)CN(c2cncc(C)n2)C3)CC1` [Example 5G, (R)-6-(4-(2-methoxyphenyl)piperidin-1-yl)-2-(6-methylpyrazin-2-yl)-2-azaspiro[3.4]octane] were, in that order, 1%, over 25000 nM, 0% and over 25000 nM.
The like results for `COc1ccccc1C1CCN([C@@H]2CCC3(C2)CN(c2cnccn2)C3)CC1` [Example 5H, (R)-6-(4-(2-methoxyphenyl)piperidin-1-yl)-2-(pyrazin-2-yl)-2-azaspiro[3.4]octane] were, in that order, 61%, 1 nM, 0% and over 25000 nM.
The like results for `COc1ccccc1C1CCN([C@@H]2CCC3(C2)CN(c2nccnc2C(F)(F)F)C3)CC1` [Example 5I, (R)-6-(4-(2-methoxyphenyl)piperidin-1-yl)-2-(3-(trifluoromethyl)pyrazin-2-yl)-2-azaspiro[3.4]octane] were, in that order, 16%, 84 nM, 0% and over 25000 nM.
For `COc1ccccc1C1CCN([C@@H]2CCC3(C2)CN(c2nccnc2C)C3)CC1` [Example 5J, (R)-6-(4-(2-methoxyphenyl)piperidin-1-yl)-2-(3-methylpyrazin-2-yl)-2-azaspiro[3.4]octane], in test [1], the Emax turned out to be 60% and the concentration giving a half-maximal response (EC50) amounted to 9 nM. In test [2], the Emax was 0% and the EC50 was over 25000 nM.
Regarding `COc1ccccc1C1CCN([C@@H]2CCC3(C2)CN(c2cccnc2)C3)CC1` [Example 5K, (R)-6-(4-(2-methoxyphenyl)piperidin-1-yl)-2-(pyridin-3-yl)-2-azaspiro[3.4]octane], in test [1], the Emax came to 64% and the concentration giving a half-maximal response (EC50) amounted to 9 nM. In test [2], the Emax turned out to be 0% and the half-maximal effective concentration (EC50) is over 25000 nM.
On to `Cc1ccc(N2CC3(CC[C@@H](N4CCC(c5ccccc5O[C@@H]5CCOC5)CC4)C3)C2)cn1` [Example 5L, (R)-2-(6-methylpyridin-3-yl)-6-(4-(2-(((R)-tetrahydrofuran-3-yl)oxy)phenyl)piperidin-1-yl)-2-azaspiro[3.4]octane], for which, in test [1], the Emax was determined as 61% and the EC50 was found to be 29 nM. Also, in test [2], the Emax was 0% and the EC50 is 11700 nM.
Take `COc1ccccc1C1CCN([C@@H]2CCC3(C2)CN(c2ncnc(C)n2)C3)CC1` [Example 5M, (R)-6-(4-(2-methoxyphenyl)piperidin-1-yl)-2-(4-methyl-1,3,5-triazin-2-yl)-2-azaspiro[3.4]octane]: in test [1], the Emax worked out at 43% and the EC50 was found to be 51 nM. Also, in test [2], the Emax was 0% and the half-maximal effective concentration (EC50) is over 25000 nM.
